A melting point compilation (Tetko et al.)

Compound `NNC(=O)Nc1c(Cl)cc(Cl)cc1Cl` has a melting point of 229 to 231 °C.
With `NC(=S)N1CCS(=O)(=O)CC1` the melting point was 233 to 235 °C.
In the case of `Cc1ccc(C(N)CC(=O)O)o1` (stereo not drawn), the melting point is reported as 199 to 201 °C.
Compound `Nc1ccc2oc(=O)[nH]c2c1` has a melting point of 204 to 206 °C.
In the case of `N#Cc1ccc(OCC(=O)NN)cc1`, the melting point is reported as 180 to 182 °C.
For `Cc1nn(-c2ccccc2)cc1C(=O)O`, the melting point was 192 to 194 °C.
In the case of `O=c1[nH]c(-c2ccc(F)cc2)cs1`, the melting point is reported as 179 to 181 °C.
Work on `O=C(O)CSCc1ccccn1` yielded a melting point of 136 to 138 °C.
In the case of `Nc1ccc(S(=O)(=O)Nc2cccc(F)c2)cc1`, the melting point is reported as 168 to 170 °C.
With `Cc1c(C(=O)O)oc2ccc(Cl)cc12` the melting point was 255 to 257 °C.
`Cc1nnc2c(N)cc(Cl)nn12` showed a melting point of 227 to 229 °C.
Compound `NNC(=O)Nc1ccc(Br)cc1Cl` has a melting point of 163 to 165 °C.
`O=Cc1coc2ccc([N+](=O)[O-])cc2c1=O` gave a melting point of 157 to 161 °C.
With `O=C(NCc1ccccc1)OCC(F)(F)F` the melting point was 62 to 66 °C.
`NC(=S)c1cc([N+](=O)[O-])ccc1N` showed a melting point of 171 to 173 °C.
In the case of `O=C(O)COc1ccc(Br)cc1F`, the melting point is reported as 106 to 108 °C.
Work on `CC1Cc2cc(C(=O)O)ccc2N1S(C)(=O)=O` (stereo not drawn) yielded a melting point of 194 to 196 °C.
For `Cc1ccc2cc(CCl)c(Cl)nc2c1`, the melting point was 132 to 134 °C.
Compound `CCCC(NC(=O)NCc1ccc(Br)cc1)C(=O)O` (stereo not drawn) has a melting point of 160 to 162 °C.
Compound `CC(C(=O)O)N1C(=O)C2C3CCC(O3)C2C1=O` (stereo not drawn) has a melting point of 189 to 191 °C.
Work on `Sc1nnc(-c2cccnc2)n1Cc1ccccc1` yielded a melting point of 179 to 181 °C.
Work on `CS(=O)(=O)Nc1cccc2c1CCCN2` yielded a melting point of 117 to 119 °C.
`Cc1cc(C(N)C(=O)O)ccc1Cl` (stereo not drawn) showed a melting point of 218 to 220 °C.
Compound `N#CCc1coc(-c2ccccc2)n1` has a melting point of 87 to 89 °C.
For `Cc1cc(C(=O)O)sc1-c1ccc(F)cc1`, the melting point was 206 to 208 °C.
`O=C(O)c1cnc(-c2ccccc2Cl)s1` gave a melting point of 200 to 202 °C.
For `CC(=O)N(c1ccc(C(F)(F)F)cc1)c1nc(C=O)cs1`, the melting point was 138 to 140 °C.
Work on `NNS(=O)(=O)c1ccccc1[N+](=O)[O-]` yielded a melting point of 89 to 91 °C.
For `Nc1cccc(Sc2ccc(Cl)cc2)c1`, the melting point was 58 to 60 °C.
For `O=C(O)c1cc([N+](=O)[O-])c(Br)cc1F`, the melting point was 152 to 154 °C.
Work on `Cc1ccc(N(C(=O)CCl)C2C=CS(=O)(=O)C2)cc1C` (stereo not drawn) yielded a melting point of 136 to 138 °C.
`CS(=O)(=O)CC(O)c1ccccc1` (stereo not drawn) gave a melting point of 103 to 105 °C.
`Nn1c(S)nnc1-c1cccs1` showed a melting point of 216 to 220 °C.
In the case of `CC1CN(C(=O)c2ccccc2N)CC(C)O1` (stereo not drawn), the melting point is reported as 119 to 121 °C.
For `CC(=O)N1CCN(C(=O)CCl)CC1`, the melting point was 89 to 91 °C.
`CN(CC(=O)O)C(=O)C1CC1` gave a melting point of 112 to 114 °C.
For `CCS(=O)(=O)Nc1ccccc1F`, the melting point was 68 to 70 °C.
`O=C(O)CSCC(=O)N1CCOCC1` showed a melting point of 119 to 121 °C.
`NS(=O)(=O)c1cc([N+](=O)[O-])ccc1Cl` showed a melting point of 155 to 157 °C.
For `CC1CNc2ccccc2S1` (stereo not drawn), the melting point was 41 to 43 °C.
Compound `ON=Cc1csnn1` has a melting point of 136 to 138 °C.
Work on `FC(F)(F)CNc1nnc(S)s1` yielded a melting point of 178 to 180 °C.
`CC1(c2ccc(Br)cc2)CC(=O)NC1=O` (stereo not drawn) gave a melting point of 144 to 146 °C.
For `Cc1oc(C(=O)O)cc1COc1ccccc1`, the melting point was 139 to 141 °C.
With `O=C(O)c1ccc(Cl)c(NC(=O)c2cccs2)c1` the melting point was 166 to 168 °C.
Work on `COC(=O)COc1c(C)cc(C(=O)O)cc1C` yielded a melting point of 173 to 175 °C.
Compound `CN1CCN(S(=O)(=O)c2cccc(Br)c2)CC1` has a melting point of 103 to 105 °C.
Work on `Cc1noc(C)c1COc1ccc(C=O)cc1` yielded a melting point of 107 to 109 °C.
Compound `O=c1[nH]ncc2c[nH]nc12` has a melting point of 266 to 268 °C.
`Cn1c(=O)cc(N)n(Cc2ccccc2)c1=O` showed a melting point of 95 to 99 °C.
Compound `CCOc1ccc(C(=O)O)cn1` has a melting point of 184 to 186 °C.
With `Cc1cc(C(=O)O)c2c(C)n[nH]c2n1` the melting point was 299 to 301 °C.
`CCOC(=O)c1cnn(-c2ccc(C(F)(F)F)cn2)c1C(F)(F)F` showed a melting point of 98 to 100 °C.
Compound `Nc1cnn(-c2cccc(C(F)(F)F)c2)c1` has a melting point of 82 to 84 °C.
In the case of `Nc1nc(-c2ccccc2)cn1N`, the melting point is reported as 258 to 260 °C.
Compound `O=C(O)c1sccc1S(=O)(=O)N1CCOCC1` has a melting point of 189 to 191 °C.
`NNC(=O)CNc1ccccc1F` gave a melting point of 99 to 101 °C.
Compound `O=C1CC2(CCCC2)Oc2ccccc21` has a melting point of 35 to 37 °C.
Work on `CCOC(=O)C(NC(=O)c1ccccc1)C(=O)OCC` yielded a melting point of 62 to 64 °C.
Compound `NC(=O)NC(=O)OCCCl` has a melting point of 185 to 187 °C.
`Nc1ccccc1C(=O)NCCO` gave a melting point of 92 to 94 °C.
`O=S(=O)(c1ccc2c(c1)CCN2)N1CCCCC1` showed a melting point of 171 to 173 °C.
`O=C(O)C1CCCN(S(=O)(=O)c2ccccc2)C1` (stereo not drawn) gave a melting point of 121 to 123 °C.
Compound `COc1ccc(Cl)cc1CCl` has a melting point of 44 to 46 °C.
In the case of `N#CCc1c[nH]c2ccc(Cl)cc12`, the melting point is reported as 104 to 106 °C.
With `CSc1noc(N)n1` the melting point was 100 to 102 °C.
For `Nc1ccc2oc(CO)nc2c1`, the melting point was 113 to 115 °C.
In the case of `Cn1cccc1-c1csc(N)n1`, the melting point is reported as 79 to 81 °C.
Compound `Nc1nnc(-c2cccc(Br)c2)o1` has a melting point of 209 to 211 °C.
`O=C(O)c1cccc(OCc2ccccc2OC(F)F)c1` showed a melting point of 139 to 141 °C.
Work on `COCC(C)n1cc(C(=O)O)c(C)n1` (stereo not drawn) yielded a melting point of 114 to 116 °C.
`Oc1ccc(OCc2ccncc2)cc1` showed a melting point of 179 to 181 °C.
`O=C(O)c1cc2ccccc2c(OCC(F)(F)F)n1` gave a melting point of 206 to 208 °C.
